Data from patent publication US5536737A, “Compound having prolyl endopeptidase inhibitory activity and pharmaceutical use thereof” (Japan Tobacco Inc., priority 1992, dated 1996).

Legend:
Format in all cases: biochemical
prolyl endopeptidase = target: T1, prolyl endopeptidase (Rattus norvegicus, UniProt O70196); assay: Prolyl endopeptidase-inhibitory activity
T1 construct: prolyl endopeptidase extracted from rat brain; from tissue; host or cells: rat brain
T1 sequence (O70196 1-710): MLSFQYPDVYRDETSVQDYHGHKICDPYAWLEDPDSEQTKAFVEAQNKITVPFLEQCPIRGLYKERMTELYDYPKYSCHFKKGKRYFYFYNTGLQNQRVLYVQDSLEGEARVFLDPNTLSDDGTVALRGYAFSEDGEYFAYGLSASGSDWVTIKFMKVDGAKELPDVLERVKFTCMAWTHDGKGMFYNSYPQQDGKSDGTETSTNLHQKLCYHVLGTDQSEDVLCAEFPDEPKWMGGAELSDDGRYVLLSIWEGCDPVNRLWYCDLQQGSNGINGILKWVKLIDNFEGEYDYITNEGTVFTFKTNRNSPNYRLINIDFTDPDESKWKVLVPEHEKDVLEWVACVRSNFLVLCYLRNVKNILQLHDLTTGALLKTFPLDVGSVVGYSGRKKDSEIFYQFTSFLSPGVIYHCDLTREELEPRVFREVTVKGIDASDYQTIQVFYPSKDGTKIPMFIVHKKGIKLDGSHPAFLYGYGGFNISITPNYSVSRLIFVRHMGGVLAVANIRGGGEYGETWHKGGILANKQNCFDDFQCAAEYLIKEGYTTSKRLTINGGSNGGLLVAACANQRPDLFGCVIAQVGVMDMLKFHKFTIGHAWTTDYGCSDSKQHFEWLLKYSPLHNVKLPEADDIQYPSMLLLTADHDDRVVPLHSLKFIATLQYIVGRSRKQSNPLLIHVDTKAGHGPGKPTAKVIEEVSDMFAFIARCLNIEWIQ
Experimental: Prolyl endopeptidase-inhibitory activity
A mixture of a 0.1M potassium-sodium phosphate buffer (pH 7.0, 2675 μl ), a solution of the compound of the present invention in a 0.1M potassium-sodium phosphate buffer (pH 7.0, 100 μl ) and a solution of prolyl endopeptidase extracted from rat brain in a 25 mM sodium phosphate buffer (100 μl ) [123 unit/1, pH 6.8, containing 1 mM dithiothreitol and 0.5 mM EDTA, prepared by the method described in J. Neurochem., 35, 527 (1980)] was preincubated at 30° C. for 30 minutes. Thereto was added a 0.2 mM solution of 7-(N-succinyl-glycyl-prolyl)-4methylcoumarinamide (Peptide Institute, INC.) in a 0.1M potassium-sodium phosphate buffer (pH 7.0, 125 μl), and the mixture was incubated at 30° C. for 1 hour. The reaction mixture was immersed in ice (0° C.) to terminate the reaction, and the fluorescence (a1) was determined ten minutes later (excitation at 370 nm and emission at 440 nm). Concurrently, an experiment wherein, in the above system, the prolyl endopeptidase solution was substituted for a 25 mM sodium phosphate buffer (pH 6.8, containing 1 mM dithiothreitol and 0.5 mM EDTA) and an experiment wherein the solution of the compound of the present invention was substituted for a 0.1M potassium-sodium phosphate buffer (pH 7.0) were conducted. Each fluorescence (a2 and a3) was determined [See Tanpakushitsu Kakusan Koso, 29, 127 (1984)]. The prolyl endopeptidase inhibition was calculated by the following formula, and IC50, a concentration necessary for 50% inhibition, was estimated by using a semilogarithmic graph paper. [formula]

trypsin = target: T2, trypsin (Bos taurus, UniProt P00760); assay: Trypsin-inhibitory activity; settings: concentration 0.1 μM; bovine pancreas, pH 8.0
T2 construct: purchased Sigma; host or cells: bovine pancreas
T2 sequence (P00760 24-246): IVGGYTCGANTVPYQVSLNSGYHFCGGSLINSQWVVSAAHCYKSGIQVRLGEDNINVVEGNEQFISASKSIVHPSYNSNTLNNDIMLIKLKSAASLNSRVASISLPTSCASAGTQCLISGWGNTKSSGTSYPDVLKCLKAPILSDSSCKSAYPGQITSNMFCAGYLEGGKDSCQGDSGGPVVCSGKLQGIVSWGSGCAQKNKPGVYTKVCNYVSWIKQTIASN
Experimental: (§1) Inhibitory activity against various proteases
(§2) The compound of the present invention having predetermined concentrations was tested for the specificity of the inhibitory activity against various proteases according to a known test method.
(§3) The methods for the determination of the inhibitory activity against various proteases other than prolyl endopeptidase and the method for calculating the inhibition are as follows.
Determination of trypsin-inhibitory activity
In the present invention, a 50 mM Tris-HCI buffer (pH 8.0) was used as a buffer for measurement.
To a mixture of the above-mentioned buffer (850 μl ), a solution of the compound of the present invention in the same buffer (50 μl ) and a 0.02 μM solution of trypsin (derived from bovine pancreas, Sigma) in the same buffer (50 μl ) was added a 200 μM solution of 7-(prolyl-phenylaranyl-arginyl)-4methylcoumarinamide (Peptide Institute, Inc.) in the same buffer (50 μl), and the mixture was incubated at 30° C. for 1 hour. The reaction mixture was immersed in ice (0° C.) to terminate the reaction, and the fluorescence (b1) was determined 1 hour later (excitation at 370 nm and emission at 440 nm). Concurrently, an experiment wherein, in the system above, the trypsin solution was substituted for a buffer and an experiment wherein the solution of the compound of the present invention was substituted for said buffer were conducted. Each fluorescence (b2 and b3) was determined.
(§4) Using the fluorescence x1, x2 and x3 wherein x is b, c, d, e or f, measured in the above-mentioned manner, the inhibition against various proteases was calculated by the following formula: [formula]

chymotrypsin = target: T3, chymotrypsin (Bos taurus, UniProt P00766); assay: Chymotrypsin-inhibitory activity; settings: concentration 0.1 μM; bovine pancreas, pH 8.0
T3 construct: purchased Sigma; host or cells: bovine pancreas
Experimental: as §1, §2, §3
Determination of chymotrypsin-inhibitory activity
In completely the same manner as above, respective fluorescence (c1, c2 and c3) was determined using a 50 mM Tris-HCl buffer (pH 8.0) as a buffer for determination, a 0.2 μM solution of chymotrypsin (derived from bovine pancreas, Sigma) in the same buffer as an enzyme solution, and a 200 μM solution of 7-(N-succinyl-leucyl-leucyl-varyl-tyrosyl)-4-methylcoumarinamide (Peptide Institute, Inc.) in the same buffer as a substrate solution.
as §4

leucine aminopeptidase = assay: Leucine aminopeptidase-inhibitory activity; settings: concentration 0.1 μM; swine kidney, pH 8.0
Experimental: as §1, §2, §3
Determination of leucine aminopeptidase-inhibitory activity
In completely the same manner as above, respective fluorescence (d1, d2 and d3) was determined using a 50 mM Tris-HCl buffer (pH 8.0) as a buffer for determination, a 0.2 μM solution of leucine aminopeptidase (derived from swine kidney, Sigma) in the same buffer as an enzyme solution and a 200 μM solution of 7-leucyl-4-methyl-coumarinamide (Peptide Institute, Inc.) in the same buffer as a substrate solution.
as §4

elastase = target: T4, elastase (Sus scrofa, UniProt P00772); assay: Elastase-inhibitory activity; settings: concentration 0.1 μM; swine pancreas, pH 8.5
T4 construct: purchased Sigma; host or cells: swine pancreas
Experimental: as §1, §2, §3
Determination of elastase-inhibitory activity
In completely the same manner as above, respective fluorescence (e1, e2 and e3) was determined using a 1 mM Tris-HCl buffer (pH 8.5) as a buffer for determination, a 0.2 μM solution of elastase (derived from swine pancreas, Sigma) in the same buffer as an enzyme solution and a 200 μM solution of 7-(N-succinyl-aranyl-prolyl-aranyl)-4-methylcoumarinamide (Peptide Institute, Inc.) in the same buffer as a substrate solution.
as §4

cathepsin B = target: T5, cathepsin B (Bos taurus, UniProt P07688); assay: Cathepsin B-inhibitory activity; settings: concentration 0.1 μM; bovine spleen, pH 6.0
T5 construct: purchased Sigma; host or cells: bovine spleen
Experimental: as §1, §2, §3
Determination of cathepsin B-inhibitory activity
In completely the same manner as above, respective fluorescence (f1, f2 and f3) was determined using a 100 mM sodium phosphate buffer (pH 6.0; containing 1.33 mM EDTA Na2) as a buffer for determination, a 0.02 μM solution of cathepsin B (derived from bovine spleen, Sigma) in the same buffer as an enzyme solution and a 200 μM solution of 7-(N-benzyloxy-carbonyl-phenylaranyl-arginyl)-4-methylcouma-rinamide (Peptid Institute, Inc.) in the same buffer as a substrate solution.
as §4

T4 sequence (P00772 27-266): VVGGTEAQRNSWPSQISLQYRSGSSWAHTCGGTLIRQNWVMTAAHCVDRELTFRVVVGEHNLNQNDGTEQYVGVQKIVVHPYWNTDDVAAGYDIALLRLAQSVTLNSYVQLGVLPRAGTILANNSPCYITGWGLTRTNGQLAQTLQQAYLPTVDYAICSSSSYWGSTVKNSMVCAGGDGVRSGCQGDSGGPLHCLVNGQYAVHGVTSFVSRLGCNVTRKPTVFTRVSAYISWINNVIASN

Cc1ccc(CNC(=O)N2CCC[C@H]2C(=O)N2CCC[C@H]2C(=O)COC(=O)c2ccccc2)cc1 [Compound 8, (S)-2-[[(S)-2-(Benzoyloxyacetyl)-1-pyrrolidinyl]carbonyl]-N-[(4methylphenyl)methyl]-1-pyrrolidinecarboxamide]
IC50 (prolyl endopeptidase): 0.4 nM | inhibition at 0.1 µM (prolyl endopeptidase; read-out: inhibition of prolyl endopeptidase): 100% | inhibition at 0.1 µM (trypsin): 0% | inhibition at 0.1 µM (chymotrypsin): 0% | inhibition of leucine aminopeptidase (leucine aminopeptidase): 0% | inhibition at 0.1 µM (elastase): 0% | inhibition at 0.1 µM (cathepsin B): 0%
